Measured values reported in patent US8586568B2, “Methods and products for treatment of diseases” (Ampio Pharmaceuticals, Inc., priority 2005, dated 2013).
Where two headings read alike, the source gives them in different places.

Legend:
[1] = system: Human umbilical vein endothelial cells 7016 (HUVEC); experiment: Invasion chamber: fetal calf serum induced endothelial cell invasion through matrigel treated inserts (trilostane III); settings: for Mean FU: 5% FCS in bottom chamber, 24 hours, background subtracted, n=3; for effect on endothelial cell invasion: high dose (50 μM), 5% FCS induced invasion
Description: 1. Trypsinized HUVEC cells from flasks grown in Cambrex EGM-2 media to 70-80% confluence were washed two times with 37° C. EGM-2 with 0.1% FCS.
2. Cell suspensions containing 30,000 cells and compounds in EGM-2 0.1% FCS were added to the upper chamber of inserts.
3. EGM-2 containing 5% FCS was added to the bottom chamber and then incubated for 24 hours at 37° C. and 5% CO2.
4. Non-invading cells were removed from the upper chamber with cotton swab and the inserts were washed two times with 37° C. HBSS.
5. Inserts were then placed in wells containing 10 μM Calcein AM in HBSS.
6. Following four hours at 37° C. and 5% CO2, fluorescence was measured at 485 nm excitation and 595 nm emission.
Results are presented as mean fluorescent units (FU) in triplicate (n=3) with background fluorescence subtracted. […] To determine background invasion, nil inserts were included in triplicate that had EGM-2 with 0.1% FCS added to the bottom chamber.

[2] = system: HUVEC cells; experiment: Trilostane III tube formation assay in extracellular matrix gel; type: cell-based, Human; settings: 50 μM, 18 hours
Description: 1. […] EGM-2 with 0.1% FCS.
2. Cell suspensions containing 10,000 cells and compounds in both EGM-2 0.1% and 5% FCS were added per well then incubated for 18 hours at 37° C. and 5% CO2.
3. Following incubation, tube formations were photographed under microscope.
Passage 3 HUVEC 8750 cells were used for this experiment at 98% viability by trypan blue exclusion at time of seeding.

[3] = system: HUVEC cells; experiment: Danazol BioCoat Matrigel Invasion Chamber; type: cell-based, Human; settings: 5% FCS in bottom chamber, 24 hours
Description: BioCoat Matrigel Invasion Chambers were purchased from BD Biosciences (San Jose, Calif.). Inserts were rehydrated at 37° C. with 500 μl HBSS for 2 hours prior to use in humidified incubator. Trypsinized HUVEC cells were washed twice with warm EGM-2 containing 0.1% FCS and added to the upper chamber of the invasion insert at 100,000 cells in a total volume of 250 μl. Danazol and control compounds were added to the upper reservoir at final concentrations of 10 μM and 100 μM. 750 μl EGM-2 supplemented with 5% FCS was added to the bottom chamber to initiate invasion and the plates were incubated for 24 hours. Non-invasive cells were removed from the upper chamber with moistened cotton swabs and then the inserts were washed twice with HBSS. The inserts were then submerged in 10 μM calcein AM prepared in HBSS and incubated for 4 hours. Fluorescence was determined in a microplate reader at 485 nm excitation and 595 nm emission.
All data is presented as representative experiment done in triplicate. Differences between subsets were analyzed using student t-test in Microsoft Excel. P<0.05 was considered statistically significant.

[4] = system: HUVEC cells; experiment: Danazol effect on HUVEC cell proliferation (Celltiter 96 AQueous One); type: cell-based, Human; settings: for OD: OD±standard deviation
Description: Primary HUVEC and EGM-2 growth medium were obtained from Cambrex (Walkersville, Md.). The cells were passaged in medium supplemented with 2% fetal calf serum (FCS) in tissue culture flasks at 37° C. and 5% CO2. Subculturing was performed using trypsin when 60-80% confluence was obtained as specified by the supplier.
Cryopreserved ampoules of passage 2 HUVEC cells were thawed and plated in 96 well tissue culture plates at 5,000 cells/cm^2. A 50 mM stock solution of danazol was prepared in ethanol and the FCS in the medium was increased to 5% to keep danazol in solution. The cells were treated with medium containing final concentrations of danazol ranging from 0.1 to 100 μM in triplicates. 24, 48, and 72 hour incubations were performed and cell proliferation was determined utilizing Celltiter 96 AQueous One Solution Cell Proliferation assay from Promega (Madison, Wis.). In short, medium was aspirated from each well and the cells were washed with 200 μl […] buffered saline (HBSS) from Cambrex warmed to 37° C. 100 μl diluted celltiter solution (15 μl stock+85 μl EGM-2 containing 0.1% FCS) were added to each well and incubated for an additional 4 hours. Optical density was determined by microplate reader using a 530 nm filter after blank subtraction and data presented as OD±standard deviation. The final concentration of ethanol in the wells was less then 0.2% and had no effect on cell proliferation or viability.
All data are presented as representative experiment done in triplicate. Differences between subsets were analyzed using student t-test in Microsoft Excel. P<0.05 was considered statistically significant.

[5] = system: HUVEC cells; experiment: Danazol Endothelial Cell Tube Formation Assay on matrigel plugs; type: cell-based, Human; settings: 5% FCS, 18 hours
Description: To investigate the formation of capillary-like structures by HUVEC cells, the Angiogenesis System Endothelial Cell Tube Formation Assay was purchased from BD Biosciences (San Jose, Calif.) and used according to the manufacturers protocol. In brief, 100,000 HUVEC cells were seeded onto rehydrated matrigel plugs in 96 well tissue culture plates in the presence of 5% FCS to induce tube formation. […] After 18 hours the wells were photographed using a Kodak DCS Pro SLR/N digital camera (Rochester, N.Y.) mounted on an inverted microscope. Ethanol treated wells were included to determine if the vehicle had any effects on cell differentiation.

[6] = system: HUVEC cells; experiment: Trilostane III effect on HUVEC cell proliferation (Celltiter 96 Aqueous One); type: cell-based, Human; settings: for mean OD: 5% FCS, blank subtracted; for OD 1: replicate 1; for OD 2: replicate 2; for OD 3: replicate 3; for inhibition at 100 µM: Homo sapiens, HUVEC, read-out: inhibition of cultures (cell proliferation)
Description: 2. Medium was aspirated and the cells were then washed two times with 37° C. HBSS.
4. Cells were again washed to times with warm HBSS and then Celltiter reagent in EGM-2 with 0.1% FCS was added.
5. After 4 hours in culture the OD of each well was determine at 470 nm.
6. Repeat steps 4 and 5 for each time point.
Results are presented as mean OD of samples performed in triplicate (n=3) with mean blank OD subtracted. HUVEC 8750 cells were used for this experiment with 98% viability by trypan blue exclusion at time of seeding. […] The raw data are shown in Table 2 below and depicted graphically in FIG. 2.

[7] = without added 5% FCS (nil wells, 0.1% FCS)
[8] = Homo sapiens, HUVEC, 24 h, read-out: percent inhibition of proliferation
[9] = Homo sapiens, HUVEC, 48 h, read-out: percent inhibition of proliferation
[10] = Homo sapiens, HUVEC, 72 h, read-out: percent inhibition of proliferation

O=c1cc(N2CCNCC2)oc2c(-c3ccccc3)cccc12 [LY303511]
Mean FU ([1]; 50 μM): 12795.3 FU
effect on endothelial cell invasion [1]: had no effect on invasion
tube formation [2, 7]: comparable tube formations to untreated cells

2α-cyano-4α,5α-epoxyandrostan-17β-ol-3-one [trilostane]
Mean FU ([1]; 25 μM): 11212.3 FU
Mean FU ([1]; 50 μM): 9101.33 FU

C#C[C@]1(O)CC[C@H]2[C@@H]3CCC4=Cc5oncc5C[C@]4(C)[C@H]3CC[C@@]21C [danazol, 17α-pregna-2,4-dien-20-yno[2,3-d]-isoxazol-17β-ol]
effect on cell invasion ([3]; 10 μM): had no effect
effect on cell invasion ([3]; 100 μM): had no effect
OD ([4]; 0.1 μM, 72 hours): 0.798±0.037
OD ([4]; 1 μM, 48 hours): 0.378±0.037
OD ([4]; 1 μM, 72 hours): 0.484±0.022
OD ([4]; 10 μM, 24 hours): 0.288±0.037
OD ([4]; 10 μM, 48 hours): 0.241±0.012
OD ([4]; 10 μM, 72 hours): 0.229±0.016
OD ([4]; 100 μM, 24 hours): 0.162±0.017
OD ([4]; 100 μM, 48 hours): 0.19±0.033
OD ([4]; 100 μM, 72 hours): 0.156±0.018
effect on cell proliferation ([4]; 100 μM, all time points): complete arrest of cell proliferation
concentration at which inhibition was significant ([4]; 48 hours): approximately 1 μM
inhibition at 10 µM [4, 8]: 30%
inhibition at 100 µM [4, 8]: 65%
inhibition at 1 µM [4, 9]: 40%
inhibition at 10 µM [4, 9]: 61%
inhibition at 100 µM [4, 9]: 70%
inhibition at 0.1 µM [4, 10]: 28%
inhibition at 1 µM [4, 10]: 57%
inhibition at 10 µM [4, 10]: 80%
inhibition at 100 µM [4, 10]: 86%
tube formation ([5]; 50 μM): isolated colonies of HUVEC located in the plug with very few, thin connections or vessel lumen spaces
tube formation ([5]; danazol 1-50 μM): fewer organized structures with thin and less defined interconnections than controls

C[C@]12CCC3C(CC[C@@]45O[C@@H]4C4ON=CC4C[C@]35C)C1CC[C@@H]2O (stereo partly drawn) [trilostane III]
effect on endothelial cell invasion [1]: dropped the levels back to background
mean OD ([6]; 0.1 uM, 24 hour): 0.3873
OD 1 ([6]; 0.1 uM, 24 hour): 0.362
OD 2 ([6]; 0.1 uM, 24 hour): 0.368
OD 3 ([6]; 0.1 uM, 24 hour): 0.432
mean OD ([6]; 0.1 uM, 48 hour): 0.656
OD 1 ([6]; 0.1 uM, 48 hour): 0.575
OD 2 ([6]; 0.1 uM, 48 hour): 0.698
OD 3 ([6]; 0.1 uM, 48 hour): 0.695
mean OD ([6]; 0.1 uM, 72 hour): 0.9187
OD 1 ([6]; 0.1 uM, 72 hour): 0.733
OD 2 ([6]; 0.1 uM, 72 hour): 0.962
OD 3 ([6]; 0.1 uM, 72 hour): 1.061
mean OD ([6]; 1 uM, 24 hour): 0.311
OD 1 ([6]; 1 uM, 24 hour): 0.284
OD 2 ([6]; 1 uM, 24 hour): 0.328
OD 3 ([6]; 1 uM, 24 hour): 0.321
mean OD ([6]; 1 uM, 48 hour): 0.4347
OD 1 ([6]; 1 uM, 48 hour): 0.358
OD 2 ([6]; 1 uM, 48 hour): 0.489
OD 3 ([6]; 1 uM, 48 hour): 0.457
mean OD ([6]; 1 uM, 72 hour): 0.3877
OD 1 ([6]; 1 uM, 72 hour): 0.387
OD 2 ([6]; 1 uM, 72 hour): 0.437
OD 3 ([6]; 1 uM, 72 hour): 0.339
mean OD ([6]; 10 uM, 24 hour): 0.2467
OD 1 ([6]; 10 uM, 24 hour): 0.18
OD 2 ([6]; 10 uM, 24 hour): 0.267
OD 3 ([6]; 10 uM, 24 hour): 0.293
mean OD ([6]; 10 uM, 48 hour): 0.203
OD 1 ([6]; 10 uM, 48 hour): 0.159
OD 2 ([6]; 10 uM, 48 hour): 0.208
OD 3 ([6]; 10 uM, 48 hour): 0.242
mean OD ([6]; 10 uM, 72 hour): 0.072
OD 1 ([6]; 10 uM, 72 hour): 0.031
OD 2 ([6]; 10 uM, 72 hour): 0.095
OD 3 ([6]; 10 uM, 72 hour): 0.09
mean OD ([6]; 100 uM, 24 hour): 0.2787
OD 1 ([6]; 100 uM, 24 hour): 0.235
OD 2 ([6]; 100 uM, 24 hour): 0.334
OD 3 ([6]; 100 uM, 24 hour): 0.267
mean OD ([6]; 100 uM, 48 hour): 0.2147
OD 1 ([6]; 100 uM, 48 hour): 0.17
OD 2 ([6]; 100 uM, 48 hour): 0.23
OD 3 ([6]; 100 uM, 48 hour): 0.244
mean OD ([6]; 100 uM, 72 hour): 0.108
OD 1 ([6]; 100 uM, 72 hour): 0.092
OD 2 ([6]; 100 uM, 72 hour): 0.119
OD 3 ([6]; 100 uM, 72 hour): 0.113
lowest concentration with statistically relevant decrease in cell proliferation ([6]; 24 hours): 1 µM
inhibition at 100 µM ([6]; 24 hours): 33%
inhibition at 100 µM ([6]; 48 hours): 67%
inhibition at 100 µM ([6]; 72 hours): 90%
cell viability under inverted microscope ([6]; all wells, even highest doses after 72 hours in culture): Viable cells were visible in all wells
tube formation ([2]; in the presence of 5% fetal calf serum): greatly reduced tube formation
tube formation [2, 7]: decrease in branching, vacuole formation, and increase in satellite cells

O=c1cc(N2CCOCC2)oc2c(-c3ccccc3)cccc12 [LY294002]
fluorescence of invaded cells ([3]; concentration not stated with the value): 5814±153 FU
Mean FU ([1]; 50 μM): 9454.33 FU
